Data as given in ChEMBL document CHEMBL6115029, “Discovery of Daraxonrasib (RMC-6236), a Potent and Orally Bioavailable RAS(ON) Multi-selective, Noncovalent Tri-complex Inhibitor for the Treatment of Patients with Multiple RAS-Addicted Cancers” (J Med Chem, 2025).
Values after ≈ are worked out from the molar mass of the structure shown. Active and inactive are the calls of the source. The rule behind the calls is not given here.

Experiments:
[1] = Inhibition of 6His-tagged KRAS G12D mutant(1 to 169 residues)/GST-tagged GMPPNP-bound BRAF RBD (155 to 229 reisudes)/Cyclophilin A (unknown origin) tri-complex protein-protein interaction incubated for 3 hrs by TR-FERT based disruption assay; design: species or system Homo sapiens
[2] = Inhibition of 6His-tagged KRAS G12C mutant(1 to 169 residues)/GST-tagged GMPPNP-bound BRAF RBD (155 to 229 reisudes)/Cyclophilin A (unknown origin) tri-complex protein-protein interaction incubated for 3 hrs by TR-FERT based disruption assay; design: species or system Homo sapiens
[3] = test system: CAPAN-1; assay: Cytotoxicity against human CAPAN-1 cells harboring KRAS G12V mutant cultured as 2D cells assessed as reduction in cell viability incubated for 120 hrs by CellTiter-Glo luminescence assay; assay type: functional, cell-based; conditions: CAPAN-1, 120 h
[4] = test system: NCI-H358; assay: Cytotoxicity against human NCI-H358 cells harboring KRAS G12C mutant cultured as 2D cells assessed as reduction in cell viability incubated for 120 hrs by CellTiter-Glo luminescence assay; assay type: functional, cell-based; conditions: NCI-H358, 120 h
[5] = Inhibition of ERK1/2 phosphorylation in human NCI-H358 cells harboring KRAS G12C mutant incubated for 4 hrs by AlphaLISA assay; assay type: cell-based; conditions: NCI-H358, 4 h
[6] = Inhibition of ERK1/2 phosphorylation in human ASPC1 cells harboring KRAS G12D mutant incubated for 4 hrs by AlphaLISA assay; assay type: cell-based; conditions: ASPC1, 4 h
[7] = Kinetic solubility of compound in PBS at pH 7.4 measured after 5 hrs by UV analysis; assay type: physicochemical; conditions: read-out: Kinetic_solubility
[8] = Half-life in female BALB/c mouse at 1 mg/kg, iv measured after 24 hrs by LC-MS/MS analysis; assay type: ADME, organism-based; conditions: in vivo
[9] = Clearance in female BALB/c mouse blood at 1 mg/kg, iv measured after 24 hrs by LC-MS/MS analysis; assay type: ADME, organism-based
[10] = Clearance in female BALB/c mouse plasma at 1 mg/kg, iv measured after 24 hrs by LC-MS/MS analysis; assay type: ADME, organism-based
[11] = Oral bioavailability in female BALB/c mouse blood at 10 mg/kg measured after 24 hrs by LC-MS/MS analysis; assay type: ADME, organism-based
[12] = Oral bioavailability in female BALB/c mouse plasma at 10 mg/kg measured after 24 hrs by LC-MS/MS analysis; assay type: ADME, organism-based
[13] = Tmax in female BALB/c mouse at 10 mg/kg, po measured after 24 hrs by LC-MS/MS analysis; assay type: ADME, organism-based; conditions: in vivo
[14] = Half-life in female BALB/c mouse at 10 mg/kg, po measured after 24 hrs by LC-MS/MS analysis; assay type: ADME, organism-based; conditions: in vivo
[15] = Half-life in male Sprague-Dawley rat at 1 mg/kg, iv measured after 24 hrs by LC-MS/MS analysis; assay type: ADME, organism-based; conditions: in vivo
[16] = Tmax in male Sprague-Dawley rat at 60 mg/kg, po measured after 24 hrs by LC-MS/MS analysis; assay type: ADME, organism-based; conditions: in vivo
[17] = Oral bioavailability in male Sprague-Dawley rat at 60 mg/kg measured after 24 hrs by LC-MS/MS analysis; assay type: ADME, organism-based; conditions: in vivo
[18] = Half-life in male Beagle dog at 1 mg/kg, iv measured after 24 hrs by LC-MS/MS analysis; assay type: ADME, organism-based, Canis lupus familiaris; conditions: in vivo
[19] = Tmax in male Beagle dog at 5 mg/kg, po measured after 24 hrs by LC-MS/MS analysis; assay type: ADME, organism-based, Canis lupus familiaris; conditions: in vivo
[20] = Half-life in male Beagle dog at 5 mg/kg, po measured after 24 hrs by LC-MS/MS analysis; assay type: ADME, organism-based, Canis lupus familiaris; conditions: in vivo
[21] = Oral bioavailability in male Beagle dog at 5 mg/kg measured after 24 hrs by LC-MS/MS analysis; assay type: ADME, organism-based, Canis lupus familiaris; conditions: in vivo
[22] = Tmax in male cynomolgus monkey at 10 mg/kg, po measured after 24 hrs by LC-MS/MS analysis; assay type: ADME, organism-based, Macaca fascicularis; conditions: in vivo
[23] = Oral bioavailability in male cynomolgus monkey at 10 mg/kg measured after 24 hrs by LC-MS/MS analysis; assay type: ADME, organism-based, Macaca fascicularis; conditions: in vivo
[24] = test system: PSN1; assay: Inhibition of ERK1/2 phosphorylation in human PSN1 cells harboring KRAS G12R mutant incubated for 4 hrs by AlphaLISA assay; assay type: cell-based
[25] = test system: HCT-116; assay: Inhibition of ERK1/2 phosphorylation in human HCT-116 cells harboring KRAS G13D mutant incubated for 4 hrs by AlphaLISA assay; assay type: cell-based
[26] = In vivo inhibition of MAPK signaling pathway in female BALB/c nude mouse xenografted with human MIA PaCa-2 cells harboring KRAS G12C/G12C mutant assessed as reduction in DUSP6 mRNA level in tumor at 3 mg/kg, po administered as single dose and measured after 8 hrs by qPCR analysis relative to control; assay type: functional
[27] = In vivo inhibition of MAPK signaling pathway in female BALB/c nude mouse xenografted with human MIA PaCa-2 cells harboring KRAS G12C/G12C mutant assessed as reduction in DUSP6 mRNA level in tumor at 10 mg/kg, po administered as single dose and measured after 8 hrs by qPCR analysis relative to control; assay type: functional
[28] = Toxicity in female BALB/c nude mouse xenografted with human MIA PaCa-2 cells harboring KRAS G12C/G12C mutant assessed as effect on body weight at 25 mg/kg, po administered once daily for 28 days; assay type: organism-based; conditions: in vivo, 672 h, time 28 day
[29] = Toxicity in female BALB/c nude mouse xenografted with human HPAF-II cells harboring wildtype KRAS/KRAS G12D mutant assessed as effect on body weight at 25 mg/kg, po administered once daily for 28 days; assay type: organism-based; conditions: in vivo, 672 h, time 28 day
[30] = Toxicity in female BALB/c nude mouse xenografted with human NCI-H441 cells harboring wildtype KRAS/KRAS G12V mutant assessed as effect on body weight at 25 mg/kg, po administered once daily for 28 days; assay type: organism-based; conditions: in vivo, 672 h, time 28 day
[31] = Toxicity in female BALB/c nude mouse xenografted with human NCI-H1373 cells harboring KRAS G12C/KRAS G12C mutant assessed as effect on body weight at 25 mg/kg, po administered once daily for 28 days; assay type: organism-based; conditions: in vivo, 672 h, time 28 day
[32] = test system: HPAF-II; assay: Antitumor activity against human HPAF-II cells harboring wildtype KRAS/KRAS G12D mutant xenografted in female BALB/c mouse model assessed as tumor regression at 25 mg/kg, po administered once daily for 28 days; assay type: functional, organism-based; conditions: time 28.0 day
[33] = test system: NCI-H441; assay: Antitumor activity against human NCI-H441 cells harboring wildtype KRAS/KRAS G12V mutant xenografted in female BALB/c nude mouse assessed as tumor regression at 25 mg/kg, po administered once daily for 28 days; assay type: functional, organism-based; conditions: time 28.0 day
[34] = molecular target: Voltage-gated inwardly rectifying potassium channel KCNH2 (Homo sapiens, UniProt Q12809); assay: Inhibition of human ERG; assay type: toxicity
Sequence of Voltage-gated inwardly rectifying potassium channel KCNH2 (Q12809 whole entry): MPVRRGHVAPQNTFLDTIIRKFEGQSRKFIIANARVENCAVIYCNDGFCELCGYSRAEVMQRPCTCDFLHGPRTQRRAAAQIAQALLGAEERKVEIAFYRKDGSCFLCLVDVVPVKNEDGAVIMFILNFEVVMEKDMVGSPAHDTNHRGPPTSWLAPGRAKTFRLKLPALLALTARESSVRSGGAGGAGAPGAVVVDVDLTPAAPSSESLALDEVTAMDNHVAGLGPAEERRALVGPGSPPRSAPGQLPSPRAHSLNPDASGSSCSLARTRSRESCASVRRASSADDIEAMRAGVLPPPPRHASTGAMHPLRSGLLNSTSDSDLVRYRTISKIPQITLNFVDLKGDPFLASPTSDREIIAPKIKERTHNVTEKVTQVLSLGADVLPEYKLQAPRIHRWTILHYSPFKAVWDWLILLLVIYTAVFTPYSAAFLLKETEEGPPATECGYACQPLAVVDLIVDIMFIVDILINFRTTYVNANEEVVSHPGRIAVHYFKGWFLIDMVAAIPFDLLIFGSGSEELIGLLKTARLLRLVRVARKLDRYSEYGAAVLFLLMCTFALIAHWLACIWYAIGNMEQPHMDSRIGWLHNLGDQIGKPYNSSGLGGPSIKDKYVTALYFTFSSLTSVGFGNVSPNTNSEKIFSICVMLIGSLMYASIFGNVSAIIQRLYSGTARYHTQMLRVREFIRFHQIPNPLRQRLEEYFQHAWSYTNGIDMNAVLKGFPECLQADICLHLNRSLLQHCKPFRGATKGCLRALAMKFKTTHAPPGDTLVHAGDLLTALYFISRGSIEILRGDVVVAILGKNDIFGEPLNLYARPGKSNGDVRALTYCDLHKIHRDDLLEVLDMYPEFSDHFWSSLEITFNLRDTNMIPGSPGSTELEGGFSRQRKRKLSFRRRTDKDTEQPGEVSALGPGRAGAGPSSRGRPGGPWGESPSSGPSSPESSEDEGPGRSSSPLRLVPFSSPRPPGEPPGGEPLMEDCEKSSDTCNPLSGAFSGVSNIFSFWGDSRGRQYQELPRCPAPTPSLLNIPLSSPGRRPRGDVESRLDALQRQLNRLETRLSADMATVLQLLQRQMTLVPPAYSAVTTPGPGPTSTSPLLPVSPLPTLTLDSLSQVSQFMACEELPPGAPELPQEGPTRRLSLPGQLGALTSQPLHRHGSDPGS

[35] = molecular target: Voltage-dependent L-type calcium channel subunit alpha-1C (Homo sapiens, UniProt Q13936); assay: Inhibition of human Cav1.2; assay type: toxicity
Sequence of Voltage-dependent L-type calcium channel subunit alpha-1C (Q13936 whole entry): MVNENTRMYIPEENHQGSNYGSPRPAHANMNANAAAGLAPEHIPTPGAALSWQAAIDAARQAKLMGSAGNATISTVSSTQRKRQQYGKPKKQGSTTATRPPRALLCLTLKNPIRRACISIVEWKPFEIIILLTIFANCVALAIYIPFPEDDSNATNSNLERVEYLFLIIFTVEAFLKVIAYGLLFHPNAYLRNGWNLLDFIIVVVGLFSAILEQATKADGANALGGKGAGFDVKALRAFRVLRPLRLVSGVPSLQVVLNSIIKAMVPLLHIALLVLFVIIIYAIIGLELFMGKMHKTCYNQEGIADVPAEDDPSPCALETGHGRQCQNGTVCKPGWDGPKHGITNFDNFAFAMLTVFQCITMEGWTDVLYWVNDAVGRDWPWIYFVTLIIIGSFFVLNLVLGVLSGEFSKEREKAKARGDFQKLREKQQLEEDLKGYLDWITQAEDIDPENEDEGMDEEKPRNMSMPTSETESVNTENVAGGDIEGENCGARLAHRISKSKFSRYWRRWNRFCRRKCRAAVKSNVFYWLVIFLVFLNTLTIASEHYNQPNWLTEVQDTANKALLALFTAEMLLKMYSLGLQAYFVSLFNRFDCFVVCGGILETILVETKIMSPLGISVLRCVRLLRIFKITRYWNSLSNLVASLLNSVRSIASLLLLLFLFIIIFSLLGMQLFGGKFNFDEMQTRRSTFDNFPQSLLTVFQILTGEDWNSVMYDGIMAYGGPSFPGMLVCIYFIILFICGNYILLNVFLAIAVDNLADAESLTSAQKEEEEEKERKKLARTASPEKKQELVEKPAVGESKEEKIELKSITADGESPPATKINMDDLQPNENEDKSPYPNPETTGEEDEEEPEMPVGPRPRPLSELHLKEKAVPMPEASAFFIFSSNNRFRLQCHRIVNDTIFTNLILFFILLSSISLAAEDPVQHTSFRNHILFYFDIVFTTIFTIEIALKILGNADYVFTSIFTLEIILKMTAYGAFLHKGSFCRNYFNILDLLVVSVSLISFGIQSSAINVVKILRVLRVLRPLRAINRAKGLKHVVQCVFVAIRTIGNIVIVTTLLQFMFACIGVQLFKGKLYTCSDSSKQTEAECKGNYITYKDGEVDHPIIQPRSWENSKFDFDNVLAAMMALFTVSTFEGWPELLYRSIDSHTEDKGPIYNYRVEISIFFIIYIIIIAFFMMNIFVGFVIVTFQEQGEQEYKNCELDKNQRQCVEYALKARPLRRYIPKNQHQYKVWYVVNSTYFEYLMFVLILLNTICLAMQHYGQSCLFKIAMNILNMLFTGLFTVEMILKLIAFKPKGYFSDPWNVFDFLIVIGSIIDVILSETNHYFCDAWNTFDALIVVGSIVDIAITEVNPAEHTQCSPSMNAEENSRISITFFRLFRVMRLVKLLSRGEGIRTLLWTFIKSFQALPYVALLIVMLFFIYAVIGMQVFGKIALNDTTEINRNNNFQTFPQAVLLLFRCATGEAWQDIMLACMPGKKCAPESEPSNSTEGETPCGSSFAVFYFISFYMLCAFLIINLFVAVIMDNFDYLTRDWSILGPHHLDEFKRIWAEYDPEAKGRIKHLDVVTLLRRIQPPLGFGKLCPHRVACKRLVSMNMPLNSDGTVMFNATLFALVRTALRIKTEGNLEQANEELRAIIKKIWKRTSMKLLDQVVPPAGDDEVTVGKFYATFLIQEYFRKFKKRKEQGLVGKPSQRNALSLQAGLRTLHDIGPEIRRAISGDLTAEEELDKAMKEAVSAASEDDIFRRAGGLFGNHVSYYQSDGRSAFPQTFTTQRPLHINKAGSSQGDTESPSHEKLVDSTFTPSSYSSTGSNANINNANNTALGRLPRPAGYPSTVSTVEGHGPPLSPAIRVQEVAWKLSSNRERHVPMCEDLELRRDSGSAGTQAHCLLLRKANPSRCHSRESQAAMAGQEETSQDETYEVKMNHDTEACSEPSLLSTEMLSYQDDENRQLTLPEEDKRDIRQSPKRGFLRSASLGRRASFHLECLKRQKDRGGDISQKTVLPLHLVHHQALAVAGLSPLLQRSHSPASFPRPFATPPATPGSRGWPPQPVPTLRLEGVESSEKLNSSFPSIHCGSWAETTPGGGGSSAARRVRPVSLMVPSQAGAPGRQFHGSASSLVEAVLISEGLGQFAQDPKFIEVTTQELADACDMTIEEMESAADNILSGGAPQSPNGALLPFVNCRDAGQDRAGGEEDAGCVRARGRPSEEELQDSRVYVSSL

[36] = Mutagenicity in Salmonella typhimurium by Ames test; assay type: toxicity; conditions: salmonella enterica subsp. enterica serovar typhimurium
[37] = Genotoxicity in Salmonella typhimurium by Ames test; assay type: toxicity; conditions: salmonella enterica subsp. enterica serovar typhimurium
[38] = Toxicity in human PBL cells in presence of rat S9 fraction by micronucleus assay; assay type: subcellular

SMILES: CCn1c(-c2cc(N3CCN(C)CC3)cnc2[C@H](C)OC)c2c3cc(ccc31)-c1csc(n1)C[C@H](NC(=O)[C@H]1C[C@@H]1C)C(=O)N1CCC[C@H](N1)C(=O)OCC(C)(C)C2
- IC50 [1]: 229 nM
- IC50 [2]: 35 nM
- EC50 [3]: 1.3 nM
- EC50 [4]: 1 nM
- EC50 [5]: 1.6 nM
- EC50 [6]: 3.6 nM
- solubility kinetic at 5 h [7]: 71 µM (≈ 57.6 µg/mL)
- half-life [8]: 2.2 h
- clearance [9]: 8.33 mL/min/kg
- clearance [10]: 40 mL/min/kg
- bioavailability [11]: 33%
- bioavailability [12]: 52%
- Tmax [13]: 1.7 h
- half-life [14]: 2.4 h
- half-life [15]: 1.7 h
- Tmax [16]: 4 h
- bioavailability [17]: 27%
- half-life [18]: 6.1 h
- Tmax [19]: 0.7 h
- half-life [20]: 5.3 h
- bioavailability [21]: 33%
- Tmax [22]: 3.7 h
- bioavailability [23]: 24%
- inhibition [24]: Active
- inhibition [25]: Active
- inhibition in vivo at 3 mg/kg [26]: 93%
- inhibition in vivo at 10 mg/kg [27]: 95%
- Activity [28]: Non-toxic
- Activity [29]: Non-toxic
- Activity [30]: Non-toxic
- Activity [31]: Non-toxic
- Activity [32]: Active
- Activity [33]: Active
- IC50 [34]: 8900 nM
- IC50 [35]: > 30000 nM
- Activity [36]: Non-toxic
- Activity [37]: Non-toxic
- Activity [38]: Non-toxic
